Experiment [1] deals with T1, UT-B (Mus musculus, UniProt Q8VHL0).
T1 construct: endogenous in cells; host or cells: erythrocytes of C57 mice
T1 sequence (Q8VHL0 1-384): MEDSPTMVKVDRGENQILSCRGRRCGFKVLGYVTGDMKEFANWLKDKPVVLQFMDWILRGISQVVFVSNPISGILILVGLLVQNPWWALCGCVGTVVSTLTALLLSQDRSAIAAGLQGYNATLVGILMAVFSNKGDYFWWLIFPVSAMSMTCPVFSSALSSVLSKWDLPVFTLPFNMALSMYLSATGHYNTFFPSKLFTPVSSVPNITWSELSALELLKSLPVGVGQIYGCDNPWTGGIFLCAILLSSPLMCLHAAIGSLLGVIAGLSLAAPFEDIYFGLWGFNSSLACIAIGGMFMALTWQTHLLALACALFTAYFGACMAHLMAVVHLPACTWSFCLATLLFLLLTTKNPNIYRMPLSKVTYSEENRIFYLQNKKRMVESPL
Description: erythrocyte lysis model, mouse erythrocytes. The experiment is classed as cell-based. The conditions noted are these: concentration when the erythrocyte lysis rate of mice was 50%. As for the experimental part: (§1) Erythrocyte lysis rate was calculated:
(§2) The formula for calculating the lysis rate percentage of erythrocytes, wherein Atest was the absorbance value of the test well, Aneg was the absorbance value of the negative control well, and Apos was the absorbance value of the positive control well. Erythrocyte lysis rate was calculated by measuring absorption at a wavelength of 710 nm.
(§3) The erythrocytes of three species of human, rats (SD rats) and mice (C57 mice) were taken, and urea transporter inhibitors were preliminarily screened from the above screening compound library by using the erythrocyte urea transporter inhibitor screening model.

Experiment [2] addresses T2, UT-B (Rattus norvegicus, UniProt P97689).
T2 construct: endogenous in cells; host or cells: erythrocytes of SD rats
T2 sequence (P97689 1-384): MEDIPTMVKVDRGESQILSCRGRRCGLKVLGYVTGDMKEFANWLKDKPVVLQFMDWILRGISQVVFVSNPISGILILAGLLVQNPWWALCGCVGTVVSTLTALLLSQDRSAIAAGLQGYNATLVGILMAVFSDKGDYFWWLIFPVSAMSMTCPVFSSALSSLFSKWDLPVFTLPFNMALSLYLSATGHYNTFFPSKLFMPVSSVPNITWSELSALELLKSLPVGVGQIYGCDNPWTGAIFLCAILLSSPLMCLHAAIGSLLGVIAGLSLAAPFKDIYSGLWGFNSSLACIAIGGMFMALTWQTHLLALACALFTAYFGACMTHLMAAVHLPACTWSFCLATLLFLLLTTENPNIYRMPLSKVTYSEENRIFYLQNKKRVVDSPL
Briefly: erythrocyte lysis model, rat erythrocytes. The experiment is classed as cell-based, rats. As for the experimental part:
as §1, §2, §3

Another experiment concerns the target T3, human UT-B (Homo sapiens, UniProt Q13336).
T3 construct: endogenous in cells; host or cells: human erythrocytes
T3 sequence (Q13336 1-389): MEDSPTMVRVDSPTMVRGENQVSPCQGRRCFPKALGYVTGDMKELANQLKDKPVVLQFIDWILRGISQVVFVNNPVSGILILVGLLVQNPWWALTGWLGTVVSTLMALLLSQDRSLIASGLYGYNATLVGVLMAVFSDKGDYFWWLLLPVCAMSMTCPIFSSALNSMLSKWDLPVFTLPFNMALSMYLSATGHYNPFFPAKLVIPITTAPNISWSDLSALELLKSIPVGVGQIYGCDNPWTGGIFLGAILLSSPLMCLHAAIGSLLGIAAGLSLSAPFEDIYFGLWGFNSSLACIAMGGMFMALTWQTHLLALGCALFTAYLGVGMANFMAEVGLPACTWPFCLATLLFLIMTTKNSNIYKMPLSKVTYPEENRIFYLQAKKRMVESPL
Description: erythrocyte lysis model, human erythrocytes. The experiment is classed as cell-based. As for the experimental part:
as §1, §2, §3

The mark [3] stands for this setting: concentration when the erythrocyte lysis rate of rats was 50%, read-out: IC50 rats.
Where [4] appears, read: class of the IC50 to human UT-B, read-out: Activity level.
[5] abbreviates: concentration when the erythrocyte lysis rate of human was 50%, read-out: IC50 human.

Structures are written as SMILES. Where two headings read alike, the source gives them in different places.

As to `CC(=O)Nc1ccc(NC(=O)c2ccc([N+](=O)[O-])s2)cc1` [Example 9, N-(4-acetamidophenyl)-5-nitrothiophene-2-carboxamide], the IC50 against UT-B [1] was 18.7 µM; at UT-B [2] (setting [3]) it was 20.1 µM; on human UT-B (setting [4]) it was less than 10 µM; on human UT-B (setting [5]) it was 2.53 µM.
The like results for `O=C(Nc1ccc2ncccc2c1)c1ccc([N+](=O)[O-])o1` [Example 16, N-(quinolin-6-yl)-5-nitrofuran-2-carboxamide] were, in that order, 5.08 µM, 5.49 µM, less than 10 µM and 1.64 µM.
For the compound `O=C(Nc1ccon1)c1ccc([N+](=O)[O-])o1` [Example 19, N-(isoxazol-3-yl)-5-nitrofuran-2-carboxamide], the IC50 is 10.2 µM against UT-B [1], 30 µM on UT-B [2] (setting [3]), less than 10 µM at human UT-B (setting [4]) and 3.63 µM on human UT-B (setting [5]).
For `O=C(Nc1cc[nH]n1)c1ccc([N+](=O)[O-])o1` [Example 20, N-(1H-pyrazol-5-yl)-5-nitrofuran-2-carboxamide], the IC50 is 1.09 µM against UT-B [1], 1.36 µM at UT-B [2] (setting [3]), less than 10 µM on human UT-B (setting [4]) and 0.22 µM at human UT-B (setting [5]).
As to `Cn1ccc(NC(=O)c2ccc([N+](=O)[O-])o2)n1` [Example 21, N-(1-methyl-1H-pyrazol-3-yl)-5-nitrofuran-2-carboxamide], the IC50 against UT-B [1] is 8.51 µM; at UT-B [2] (setting [3]), 1.1 µM; at human UT-B (setting [4]), less than 10 µM; on human UT-B (setting [5]), 2.21 µM.
The like results for `Cn1cc(NC(=O)c2ccc([N+](=O)[O-])o2)cn1` [Example 22, N-(1-methyl-1H-pyrazol-4-yl)-5-nitrofuran-2-carboxamide] were, in that order, 33.2 µM, 9.64 µM, 10 to 20 µM and 15.8 µM.
The like results for `Cc1cccc(NC(=O)c2ccc([N+](=O)[O-])o2)c1` [Example 28, N-(3-methylphenyl)-5-nitrofuran-2-carboxamide] were, in that order, 30.5 µM, 3.91 µM, less than 10 µM and 3.66 µM.
As for `COc1ccccc1NC(=O)c1ccc([N+](=O)[O-])o1` [Example 29, N-(2-methoxyphenyl)-5-nitrofuran-2-carboxamide], the IC50 is 17.1 µM at UT-B [1], 4.11 µM at UT-B [2] (setting [3]), less than 10 µM on human UT-B (setting [4]) and 4.87 µM on human UT-B (setting [5]).
The like results for `COc1cccc(NC(=O)c2ccc([N+](=O)[O-])o2)c1` [Example 30, N-(3-methoxyphenyl)-5-nitrofuran-2-carboxamide] were, in that order, 9.65 µM, 1.11 µM, less than 10 µM and 2.27 µM.
Turning to `O=C(Nc1cccc(O)c1)c1ccc([N+](=O)[O-])o1` [Example 32, N-(3-hydroxyphenyl)-5-nitrofuran-2-carboxamide], the IC50 is 2.39 µM at UT-B [1], 0.67 µM on UT-B [2] (setting [3]), less than 10 µM on human UT-B (setting [4]) and 0.91 µM on human UT-B (setting [5]).
Regarding `Nc1cccc(NC(=O)c2ccc([N+](=O)[O-])o2)c1` [Example 34, N-(3-aminophenyl)-5-nitrofuran-2-carboxamide], the IC50 on UT-B [1] was 10.5 µM; on UT-B [2] (setting [3]), 1.8 µM; on human UT-B (setting [4]), less than 10 µM; at human UT-B (setting [5]), 3.58 µM.
Take `O=C(Nc1ccccc1F)c1ccc([N+](=O)[O-])o1` [Example 35, N-(2-fluorophenyl)-5-nitrofuran-2-carboxamide]: the IC50 was 43.8 µM against UT-B [1], 3.8 µM at UT-B [2] (setting [3]), less than 10 µM at human UT-B (setting [4]) and 3.62 µM at human UT-B (setting [5]).
The like results for `O=C(Nc1cccc(F)c1)c1ccc([N+](=O)[O-])o1` [Example 36, N-(3-fluorophenyl)-5-nitrofuran-2-carboxamide] were, in that order, 9.28 µM, 1.85 µM, less than 10 µM and 3.09 µM.
The like results for `O=C(Nc1cccc(Cl)c1)c1ccc([N+](=O)[O-])o1` [Example 38, N-(3-chlorophenyl)-5-nitrofuran-2-carboxamide] were, in that order, 5.81 µM, 1.05 µM, less than 10 µM and 2.91 µM.
Regarding `N#Cc1cccc(NC(=O)c2ccc([N+](=O)[O-])o2)c1` [Example 40, N-(3-cyanophenyl)-5-nitrofuran-2-carboxamide], the IC50 against UT-B [1] is 7.85 µM; at UT-B [2] (setting [3]), 2.77 µM; at human UT-B (setting [4]) it was less than 10 µM; on human UT-B (setting [5]), 1 µM.
On to `CCOC(=O)c1cccc(NC(=O)c2ccc([N+](=O)[O-])o2)c1` [Example 42, Ethyl 3-(5-nitrofuran-2-carboxamido)benzoate], for which the IC50 against UT-B [1] was 2.3 µM; at UT-B [2] (setting [3]), 0.45 µM; at human UT-B (setting [4]), less than 10 µM; on human UT-B (setting [5]) it was 0.47 µM.
The like results for `NC(=O)c1cccc(NC(=O)c2ccc([N+](=O)[O-])o2)c1` [Example 44, N-(3-carbamoylphenyl)-5-nitrofuran-2-carboxamide] were, in that order, 0.5 µM, 0.17 µM, less than 10 µM and 0.42 µM.
The like results for `CC(=O)c1cccc(NC(=O)c2ccc([N+](=O)[O-])o2)c1` [Example 46, N-(3-acetylphenyl)-5-nitrofuran-2-carboxamide] were, in that order, 2.46 µM, 0.49 µM, less than 10 µM and 1.84 µM.
The like results for `O=C(Nc1ccc(CCO)cc1)c1ccc([N+](=O)[O-])o1` [Example 50, N-(4-(2-hydroxyethyl)phenyl)-5-nitrofuran-2-carboxamide] were, in that order, 10.2 µM, 8.37 µM, less than 10 µM and 5.3 µM.
In the case of `NCc1ccc(NC(=O)c2ccc([N+](=O)[O-])o2)cc1` [Example 51, N-(4-aminomethylphenyl)-5-nitrofuran-2-carboxamide], the IC50 was 1.69 µM against UT-B [1], 0.49 µM at UT-B [2] (setting [3]), less than 10 µM at human UT-B (setting [4]) and 0.94 µM at human UT-B (setting [5]).
Consider `O=C(Nc1ccc(NC(=O)c2ccc([N+](=O)[O-])o2)cc1)c1ccc([N+](=O)[O-])o1` [Example 52, N,N′-(1,4-phenylene)bis(5-nitrofuran-2-carboxamide)], for which the IC50 on UT-B [1] was 0.52 µM; on UT-B [2], 0.27 µM; on human UT-B (Activity level, class of the IC50 to human UT-B), less than 10 µM; on human UT-B (IC50 human, concentration when the erythrocyte lysis rate of human was 50%) it was 0.65 µM.
For `CNC(=O)c1cccc(NC(=O)c2ccc([N+](=O)[O-])o2)c1` [Example 53, N-(3-(methylcarbamoyl)phenyl)-5-nitrofuran-2-carboxamide], the IC50 at UT-B [1] is 0.29 µM; at UT-B [2] (setting [3]) it was 0.015 µM; at human UT-B (setting [4]) it was less than 10 µM; on human UT-B (setting [5]), 0.023 µM.
The like results for `CN(C)C(=O)c1cccc(NC(=O)c2ccc([N+](=O)[O-])o2)c1` [Example 54, N-(3-(dimethylcarbamoyl)phenyl)-5-nitrofuran-2-carboxamide] were, in that order, 0.31 µM, 0.2 µM, less than 10 µM and 0.74 µM.
On to `CCNC(=O)c1cccc(NC(=O)c2ccc([N+](=O)[O-])o2)c1` [Example 55, N-(3-(ethylcarbamoyl)phenyl)-5-nitrofuran-2-carboxamide], for which the IC50 against UT-B [1] was 5.41 µM; at UT-B [2] (setting [3]), 1.21 µM; at human UT-B (setting [4]) it was less than 10 µM; on human UT-B (setting [5]), 0.88 µM.
Regarding `CCOC(=O)c1c[nH]nc1NC(=O)c1ccc([N+](=O)[O-])o1` [Example 76, ethyl 5-(5-nitrofuran-2-carboxamide)-1H-pyrazole-4-carboxylate], the IC50 on UT-B [1] is 15 µM; at human UT-B (setting [4]), more than 80 µM; at human UT-B (setting [5]) it was more than 80 µM.

The values are drawn from patent US12428389B2, “Diarylamide compound and application thereof” (Sunshine Lake Pharma Co., Ltd., priority 2019, dated 2025).
